Assay [1] concerns S. aureus AB94004. The assay can be described thus: Bactericidal assay (time-killing). The class given is cell-based. The following applies: samples at 0, 5, 15, 30, 60 min, colony counts, average of three dishes. As to the method:
Figure 5 Bactericidal assays of the Kn2-7 and BmKn2 peptides against S. aureus and E. coli AB94012. Set point indicates untreated bacteria, and 0 minutes was defined as the time of the first sample collection, which was immediately after mixing bacteria and Kn2-7 or BmKn2. The other samples were collected at 5 min, 15 min, 30 min or 60 min. All of the counts were the average of three dishes, and the experiment was repeated at least three times. (A) Time-killing curve of Kn2-7 against S. aureus AB94004. (B) Time-killing curve of BmKn2 against S. aureus AB94004. (C) Time-killing curve of Kn2-7 against E. coli AB94012.
Bactericidal curves for Kn2-7 and BmKn2 were determined against S. aureus AB94004 and E. coli AB94012. A 400 µl aliquot of the peptide solution was added to 1,600 µl of a bacterial suspension. At each time point, 200 µl of the treated bacterial suspension was transferred to a sterilized 1.5-ml tube. After centrifugation at 1,000×g for 5 min, the supernatant was removed, and the pellet was resuspended in 200 µl of LB medium. The bacterial suspensions were placed on agar plates and incubated at 37°C until viable colonies could be counted.

Assay [2] can be described thus: Biolayer interferometry. The following applies: 10 µg/mL biotinylated peptide on biosensor tips, 500 µg/mL LPS, 10 mM HEPES pH 7.4, 0.14 M NaCl, 30°C. The class given is binding, E. coli. As to the method: Figure 7 Binding assay of Kn2-7 and LTA or LPS. (A) Interaction of 10 µg/ml of Kn2-7 with 500 µg/ml of LPS or 500 µg/mL of LTA. Curve A3 is LPS, curve B3 is LTA and curve C3 is buffer. (B) Interaction of 10 µg/mL of BmKn2 with 500 µg/mL of LPS or 500 µg/mL of LTA. Curve D3 is LPS, curve E3 is LTA and curve F3 is the buffer. (C) MICs of Kn2-7 and BmKn2 treated with LTA or LPS against S. aureus and E. coli.
Biolayer Interferometry (BLI) experiments were performed on OCT RED (FortéBio, Inc.). A total of 500 µg/mL of lipoteichoic acid from S. aureus (LTA, Sigma, L2515), lipopolysaccharides from E. coli (LPS, Sigma, L2880) or buffer (10 mM HEPES, pH 7.4 and 0.14 M NaCl) was dispensed into 96-well microtiter plates at a volume of 200 µl per well. The operating temperature was 30°C. Biosensor tips (FortéBio, Inc., Menlo Park, CA) were pre-wetted with the buffer for 60 seconds at baseline. Then, 10 µg/mL Biotin-Kn2-7 or Biotin-BmKn2 was loaded onto the biosensor tips for 900 seconds. Baseline 2 was subsequently established for 300 seconds. Dissociation of Kn2-7 or BmKn2 occurred for 900 seconds in the buffer. Data were generated automatically by the Octet® User Software (version 3.1) and were subsequently analyzed from the resultant text files using Excel 2000.

In assay [3] the test system is HIV-1. The following applies: by direct interaction with viral particle; cited from earlier work. The source says: In a previous study by our group, we characterized an antimicrobial peptide, BmKn2, derived from the venom of the scorpion Mesobuthus martensii Karsch. In the present study, a derivative of BmKn2, was designed to increase the antibacterial activity and reduce the hemolytic activity. […] In addit ...

The subject of assay [4] is E. coli AB94012. Kind of assay: LTA and LPS competition binding assay (MIC). Type of assay: cell-based. The following applies: controls of the competition assay (Figure 7C): untreated peptide, or LTA / LPS alone. As to the method: To confirm the results of the BLI titrations, 250 µg/mL of Kn2-7 or BmKn2 was mixed with an equal volume of 1 mg/mL LTA or LPS. Then, the MICs of Kn2-7 or BmKn2 mixed with LTA against S. aureus and E. coli were measured. […] The MICs of Kn2-7 and BmKn2 treated with LTA against S. aureus were 25 and 12.5 µg/mL, respectively.
A total of 250 µg/mL of each peptide solution was mixed with an equal volume of 1 mg/mL of the LTA or LPS solution. Then, the MICs of BmKn2 and Kn2-7 treated with LTA or LPS against S. aureus AB94004 and E. coli AB94012 were measured.

Assay [5] deals with P. aeruginosa A093115. Kind of assay: MIC, broth microdilution (CLSI). The class given is cell-based, Pseudomonas aeruginosa. The following applies: P. aeruginosa A093115, clinical isolate. As to the method:
(§1) Clinical isolated Pseudomonas aeruginosa strains A092994, A093052, A093056, A093085 and A093115 were obtained from Hubei Maternal and Child Health Hospital.
(§2) The MIC was determined via a microdilution assay in 96-well microtiter plates according to the broth microdilution guideline of Clinical and Laboratory Standards Institute (CLSI).
Background: In broth dilution the organism is exposed to a series of concentrations in liquid medium.

The subject of assay [6] is P. aeruginosa A093085. The assay can be described thus: MIC, broth microdilution (CLSI). The class given is cell-based, Pseudomonas aeruginosa. The following applies: P. aeruginosa A093085, clinical isolate. As to the method:
as §1, §2

The test system of assay [7] is P. aeruginosa A093052. Kind of assay: MIC, broth microdilution (CLSI). Type of assay: cell-based, Pseudomonas aeruginosa. The following applies: P. aeruginosa A093052, clinical isolate. As to the method:
as §1, §2

For assay [8], the system named is P. aeruginosa A092994. Kind of assay: MIC, broth microdilution (CLSI). The conditions noted are these: P. aeruginosa A092994, clinical isolate. Type of assay: cell-based, Pseudomonas aeruginosa. As to the method: as §1, §2
Assay [9] relates to P. aeruginosa A093056. Kind of assay: MIC, broth microdilution (CLSI). The class given is cell-based, Pseudomonas aeruginosa. The following applies: P. aeruginosa A093056, clinical isolate. As to the method: as §1, §2
Assay [10] relates to M. luteus AB93113. The assay can be described thus: MIC, broth microdilution (CLSI). The class given is cell-based, Micrococcus luteus. The following applies: M. luteus AB93113, Gram-positive, 96-well. As to the method:
(§3) S. aureus AB94004, S. aureus ATCC 25923, E. coli AB94012, E. coli ATCC 25922, Pseudomonas aeruginosa AB93066, Bacillus thuringiensis AB92037, Bacillus subtilis AB91021, and Micrococcus luteus AB93113 were purchased from the China Center of Type Culture Collection (CCTCC).
as §2

In assay [11] the test system is E. coli AB94012. Type of assay: cell-based. The conditions noted are these: E. coli AB94012, Gram-negative; broth microdilution, 96-well. As to the method: These peptides were used to determine the inhibitory activities against the representative Gram-positive bacteria S. aureus AB94004 and the representative Gram-negative bacteria E. coli AB94012.
as §3, §2

Assay [12] has as its system methicillin-resistant coagulase-negative Staphylococcus (MRCNS) P1369. The assay can be described thus: microbe, parasite or virus in culture. Type of assay: cell-based. The conditions noted are these: P1369, methicillin resistant (MRCNS) clinical isolate; repeated at least three times. As to the method:
as §2

Ends that are not written are not given here.

Take FIKRIARLLRKIF [Kn2-7]: the “Bactericidal effect (time-killing curve)” value in assay [1] is listed as “bactericidal effects”. For the same substance, the “Binding to LPS (BLI)” value in assay [2] is “able to bind to LPS”. Also, the “Inhibition of HIV-1” value in assay [3] is listed as “could inhibit HIV-1”. Moreover, the “MIC E.coli, substance alone” value in [4] was 6.25 µg/mL.

As to FIGAIARLLSKIF-NH2 [BmKn2], the MIC is on record as >100 µg/mL in [5]; >100 µg/mL in assay [6]; >100 µg/mL in assay [7]; >100 µg/mL in assay [8]; >100 µg/mL in assay [9]; 6.25 µg/mL in assay [10]. Further, the MIC in assay [11] is listed as >100 µg/mL; in assay [12], 12.5 µg/mL.

Values taken from article PMC3390344, “Antibacterial Activity and Mechanism of a Scorpion Venom Peptide Derivative In Vitro and In Vivo” (PLoS ONE, 2012).
